Measurements reported in patent US6734180B1, “NF-κB inhibitor comprising an indan derivative as an active ingredient” (Daiichi Suntory Pharma Co., Ltd., priority 1998, dated 2004).
Read-outs that look alike come from different tables or passages of the source.

Key:
NO production = NO production of LPS-stimulated RAW264.7 cells (Griess' method); type: cell-based, mouse; conditions: LPS (10 μg/ml), 24 hours after the stimulation
Source text: (§1) Experiment 3. Effect of lipopolysaccharide (LPS) stimulation on NO and TNF-α production
(§2) When various cells are stimulated with LPS, NV-κB is activated which results in the expression and induction of proteins represented by NOS, TNF-α, and thereby the cells start to produce NO and/or TNF-α.
To determine the production of NO indirectly, the Griess' method utilizing a diazo reaction is useful (Green, L. C. et al., (1982) Anal. Biochem, 126, 131-138). In the Griess' method, the Griess' reagent prepared by mixing naphthylethylenediamine and sulfanilic acid is reacted with NO2^− ion in the culture medium, and the color development thereof is measured by an absorbance at 540 nm.
(§3) The inhibitory effect of these compounds was expressed as IC50 value in Table 3.

[1] = tested on: human inducible NO synthase (hiNOS) gene; assay: Expression of the human inducible NO synthase (hiNOS) gene, firefly luciferase reporter in A5 cells; type: cell-based; conditions: IL-1β (1 ng/ml)+TNF-α (500 ng/ml), firefly luciferase activity 24 hours later, read-out: IL-1β + TNF-α stimulation IC50 (inhibitory effect on the expression of the hiNOS gene)
Description: Experiment 1. Effect of compounds on the expression of the human inducible NO synthase (hiNOS) gene
The experiment was carried out using A5 cells (human lung carcinoma cell line A549 cells (ATCC, CCL185) stably transfected with NOS53+F) previously reported by the inventors (Nunokawa, Y. et al., (1997) Biochem. Biophys. Res. Commun. 233, 523-526).
Compounds described in Examples were added to A5 cells simultaneously with IL-1β (1 ng/ml)+TNF-α (500 ng/ml) to investigate the inhibitory effect on the firefly luciferase activity 24 hours later.
The activity of firefly luciferase was measured based on the protocol by the Luciferase Assay System (Promega, U.S.A.).
The inhibitory effect of the compounds claimed in the present invention on the expression of the hiNOS gene was expressed as IC50 value in Table 1.

[2] = tested on: rat models of carageenin foot pad edema; assay: Carrageenin foot pad edema in rats; type: in vivo; conditions: male Wistar rats, 1 mg/kg intraperitoneally 15 minutes before carrageenin
Description: FIG. 1 is a graph showing the result of Experiment 4 in which the compounds of Example 32 were studied using rat models of carageenin foot pad edema. Each point represents the mean±SE (n=5). Dunnett's test was carried out and the results are shown by * p<0.05 and ** p<0.01.
An aqueous solution of 1% λ-carrageenin (Wako Pure Chemical Industries) in physiological saline (0.1 ml) was intradermally administered to the pad of the left paw of 6-week old male Wistar rats weighing 149 g to 171 g, and changes in the volume of the paw were measured for indicated period. The test compound (0.3, 1 mg/kg) described in Example 32 was suspended in a solution of 0.5% hydroxypropyl cellulose in physiological saline (EPC, Nippon Soda Co., Ltd.) and was intraperitoneally given 15 minutes before the administration of carrageenin. For the control group, a solution of 0.5% HPC in physiological saline was used.

[3] = tested on: sea pansy luciferase gene (pRL-SV40) under the control of SV40 promoter; assay: Sea pansy luciferase under SV40 promoter (NF-κB independent) in A5 cells; type: cell-based, human; conditions: no stimulation, compound at 1 μg/ml for 4 hours
Description: The activity of sea pansy luciferase was measured based on the protocol by the Dual Luciferase Reporter Assay System (Promega, U.S.A.).

TNF-α production = TNF-α production of LPS-stimulated RAW264.7 cells (ELISA); type: cell-based, mouse; conditions: RAW264.7 cells stimulated with LPS for 4 hours
Source text: as §1, §2, §3

NF-κB = assay: NF-κB-controlled firefly luciferase in A549/NF-κBLuc cells; type: cell-based, human
Description: Experiment 2. Effect of compounds on A549 cells (A549/NF-κBLuc) stably transfected with luciferase plasmid (pNFκB-Luc) having the NF-κB regulatory sequence
Using lipofectamine (Lifetech oriental K.K., Tokyo), pNFκB-Luc (Stratagene, U.S.A.) were cotransfected with pSV2neo (Clontech, U.S.A.) into A549 cells according to the conventional method, and A549/NF-κBLuc stably transfected with pNFκB-Luc were selected by adding G418 sulfate ((1 mg/ml) Lifetech Oriental K.K.) to the culture medium.
NF-κB inhibiting activity was expressed as IC50 values in Table 2.

SMILES	IC50 (NO production; Mus musculus) [nM]	IC50 ([1]; Homo sapiens) [nM]	IC50 (TNF-α production; Mus musculus) [nM]	other results
Cc1csc2ncnc(NC3Cc4ccc(C(=O)N5CCOCC5)cc4C3)c12 (stereo not shown) [Example 32, 2-[5-methylthieno[2,3-d]pyrimidine-4-yl]aminoindan-5-carboxylic acid morpholinamide]				IC50 (NO production): 25 nM; IC50 [1]: 51 nM; edema formation at 2 hours ([2]; 2 hours): significantly suppressed edema formation; edema suppression at 3 hours and after ([2]; 3 hours and after): high rate of edema suppression; influence on the activity of sea pansy luciferase [3]: had no influence; IC50 (TNF-α production): 51 nM; IC50 (NF-κB; IL-1β (1 ng/ml) for 4 hours, read-out: IL-1β stimulation IC50 (NF-κB inhibiting activity)): 51 nM; IC50 (NF-κB; TNF-α (500 ng/ml) for 4 hours, read-out: TNF-α stimulation IC50 (NF-κB inhibiting activity)): 89 nM
CC(C)c1csc2ncnc(NC3Cc4ccccc4C3)c12 [Example 22, 4-(2-indanylamino)-5-isopropylthieno[2,3-d]pyrimidine]	64	64	160	
Cc1csc2ncnc(NC3Cc4ccc(Oc5ccccc5)cc4C3)c12 (stereo not shown) [Example 25, 4-(5-phenoxyindan-2-yl)amino-5-methylthieno[2,3-d]pyrimidine]		150		
c1ccc2c(c1)CC(Nc1ncnc3occc13)C2 [Example 6, 4-(2-indanylamino)furo[2,3-d]pyrimidine]		800		
c1ccc2c(c1)CC(Nc1ncnc3nc[nH]c13)C2 [Example 37, 6-(2-indanylamino)purine]				melting point: ≥ 300 °C
Cc1noc2ncnc(NC3Cc4ccccc4C3)c12 [Example 10, 3-methyl-4-(2-indanylamino)isoxazolo[5,4-d]pyrimidine]				melting point: 208 °C
Cc1csc2ncnc(NC3Cc4ccccc4C3)c12 [Example 1, 4-(2-indanylamino)-5-methylthieno[2,3-d]pyrimidine]	710	280	1100	
Cc1csc2ncnc(NC3Cc4ccc(C(=O)NCc5ccccc5)cc4C3)c12 (stereo not shown) [Example 31, N-benzyl-2-(5-methylthieno[2,3-d]pyrimidine-4-yl)amino-5-indan carboxamide]	24	2.4	48	influence on the activity of sea pansy luciferase [3]: had no influence
